# Patent US20250332141A1, “A PHARMACEUTICAL COMPOSITION COMPRISING AN INHIBITOR OF GLUTAMINE SYNTHETASE ENZYME TO COMBAT ARTEMISININ RESISTANCE IN MALARIA” (Institute of Life Sciences, priority 2022, published 2025)
# Where two headings read alike, the source gives them in different places.
# B1: rPfGS (Plasmodium falciparum glutamine synthetase) (Plasmodium falciparum 3D7) (protein)
# chain: MKSVSFSNNAELYEYIKDKKNDVEIVACIITNLLGTYFKCFFYVKEITLNKLESGFSFDASSIKLCSDTEVSDFFIKVDHSTCYLEECDGKNILNIMCDIKRYNGFDYYKCPRTILKKTCEFVKNEGIADKVCIGNELEFFIFDKVNYSLDEYNTYLKVYDRESFSCKNDLSSIYGNHVVNKVEPHKDHFNNPNNEYLINDDSKKVKKKSGYFTTDPYDTSNIIKLRICRALNDMNINVQRYHHEVSTSQHEISLKYFDALTNADFLLITKQIIKTTVSSFNRTATFMPKPLVNDNGNGLHCNISLWKNNKNIFYHNDPSTFFLSKESFYFMYGIVKHAKALQAFCNATMNSYKRLVPGFETCQKLFYSFGSRSAVIRLSLINYSNPSEKRIEFRLPDCANSPHLVMAAIILAGYDGIKSKEQPLVPFESKDNHFYISSIFSKYVQHPENFNILTHALEGYESLHTINESPEFKNFFKCEEPQGISFSLVESLDALEKDHAFLTVNNIFTEEMIQEYIKFKREEIDAYNKYVNAYDYHLYYEC
# How the values were obtained:
# [1] = system: ART-resistant PfCam3.I^R539T strain; assay: Ring-stage survival assay (RSA) with ART-resistant strain; assay type: cell-based, Plasmodium falciparum
# Method: PfCam3.I^R539T strain was maintained under standard conditions. When the parasitemia reached around 2% with predominant ring stages, the cultures were subjected to two rounds of tight synchronization within a span of 3 h in the previous cycle, followed by one additional synchronization in the subsequent cycle when they are in early rings. […] The medium change was carried out at 48 and 72 h, and after 96 h, the culture parasitemia was examined by Giemsa-stained smears and flow cytometry. For growth assessment by ^3H-hypoxanthine uptake, the label was added at 72 h and the cells were harvested at 96 h. The experiments were carried out independently in RPMI^-gln and RPMI^Pgln medium.
# Pf parasites = conditions: RPMI^-gln medium; 50 and 250 μM MSO, 12 h
# Method: Parasite pellets were then extracted with 10 volumes of 50% methanol in water (v/v), followed by lyophilisation and solubilizing the lyophilized extracts with 50 μl of water. […] For LC-MS/MS, the parasite extracts were derivatized with 6-aminoquinolyl-N-hydroxysuccinimidyl carbamate (AQC), cleaned up with SPE and dried under vacuum, followed by reconstitution with 50 μl of 0.5% acetonitrile containing 0.1% formic acid. 10 μl of the sample was used for LC-MS/MS analysis carried out in Acquity C18 column (1.8 μm, 2.1 mm×100 mm) using Dionnex Ultimate3000 UHPLC system coupled with Q Exactive mass spectrometer (Thermo Fisher Scientific). Mobile phase consisted of Solvent A: 10 mM ammonium acetate containing 0.1% formic acid and solvent B: acetonitrile containing 0.1% formic acid. Mass spectrometry was performed under spray voltage of 4000/2500V with vaporizer temperature of 250° C., sheath gas and auxillary gas flow rate of 30 and 10 Arb, respectively. The acquisition was performed in Parallel Reaction Monitoring mode at 35000 resolution with a normalized collision energy of 25 eV. The calibration curves were prepared for the individual amino acids and the samples were spiked with internal standards containing deuterated amino acids.
# Pf protein synthesis = assay: In vitro metabolic protein labelling with 35S-Methionine and Cysteine; assay type: cell-based; conditions: Plasmodium falciparum, 12 h treatment; for inhibition at 50 µM / inhibition at 250 µM: RPMI^-gln medium; for inhibition at 1000 µM: 1 mM, RPMI^Pgln medium
# Method: After 9 h of radiolabelling, parasites were isolated by saponin lysis, resuspended in 50 mM Tris pH 8.0 containing 100 mM NaCl, 2% glycerol and 0.1% Triton X-100, and lysed by sonication. The lysates were resolved on 10% SDS-PAGE gel and phosphorimager scanning was carried out to examine the radiolabelling of proteins using Amersham Typhoon 5 Biomolecular Imager. In parallel, 10 μl of the lysates were spotted on Whatman filter paper grade I, dried and washed subsequently with hot and cold 10% (w/v) trichloroacetic acid to remove free amino acids and charged-tRNAs, followed by diethyl ether to remove lipids. The filter papers were then placed in Ultima Gold XR scintillation cocktail and the radioactive counts were measured using MicroBeta^2 Microplate Counters. All these experiments were performed with identical parasitemia and hematocrit between the untreated and treated groups by equally splitting the infected cultures.
# Pf clinical isolates = assay: Inhibition studies with Pf clinical samples (3H-hypoxanthine uptake); assay type: cell-based, Plasmodium falciparum; conditions: in vitro cultures without or with glutamine; n=7 clinical isolates
# Method: The collection of clinical samples was carried out by withdrawing blood from febrile patients. Pf infections were confirmed by examining Giemsa-stained thick and thin blood smears under light microscope, and by performing rapid diagnostic test and PCR for 18S rRNA. The infected blood was collected in heparinized vacutainers and the subsequent procedures were carried out in BSL-2 facility under sterile conditions. […] The packed cells were then resuspended in the same medium and the hematocrit was adjusted to 5%. The cultures were treated with different concentrations of MSO/PPT and ^3H-hypoxanthine addition was carried out after 3 h of MSO/PPT addition to assess the parasite growth. The cultures were incubated following the standard conditions of Pf maintenance and the experiments were performed for each clinical isolate in RPMI^-gln as well as in RPMI^Pgln. All these experiments were typically carried out in a final culture volume of 1.2 ml for the respective concentrations of MSO or PPT. Parasite growth assessment was also verified by examining the Giemsa-stained smears.
# [2] = system: Pf asexual stages (Pf3D7 cultures); assay: MSO and PPT inhibition of in vitro growth of Pf cultures; assay type: cell-based, Plasmodium falciparum; conditions: for IC50: Plasmodium falciparum, read-out: IC50 for inhibiting Pf growth
# Method: The parasites were subcultured with fresh RBCs when the culture parasitemia reached around 2-5%. […] The isolated parasites were washed thoroughly with ice cold PBS for four times to remove the carry-over of proteins from RBC lysates. ART-resistant PfCam3.I^R539T strain was also maintained in a similar fashion. Giemsa-stained smears were routinely prepared to examine the parasite growth and parasitemia. Parasite growth assessment for experiments was carried out by Giemsa-stained smears, flow cytometry and ^3H-hypoxanthine uptake. […] The radioactive counts were measured using MicroBeta^2 Microplate Counters (PerkinElmer).
# [3] = system: eIF2α phosphorylation in Pf3D7 rings; conditions: 250 μM for 6 h, RPMI^-gln medium
# Method: Pf3D7 cultures were subjected to two rounds of tight synchronization within a span of 3 h in the previous cycle, followed by one additional synchronization in the subsequent cycle immediately after RBC invasion.
# [4] = target: T1, rPfGS (Plasmodium falciparum glutamine synthetase) (Plasmodium falciparum, UniProt C0H551); assay: Recombinant PfGS enzyme assay (HPLC glutamine formation / Pi release) and inhibition; assay type: biochemical
# T1 sequence (C0H551 1-543): B1 chain
# Method: (§1) Enzyme assays were carried out by performing HPLC analysis for glutamine formation as well as by quantifying the release of inorganic phosphate (Pi). The enzyme assays were carried out at 37° C. for 1 h in a total volume of 25 µl and the assay mixtures contained 50 mM Tris buffer pH 8.0 with 4 mM glutamate, 50 mM NaCl, 50 mM NH4Cl, 10 mM ATP and 50 mM MgCl2 and 0.5-1.0 μg of recombinant protein. The amino acids were extracted by vortexing the assay mixtures with 50 μl of water and 375 μl of acetonitrile, followed by incubation in ice for 30 min and centrifugation at 20,000 g for 20 min at 4° C. The supernatant was collected, lyophilized and dissolved in 50 μl of water. […] Mobile phase consisted of Solvent A: 10 mM Na2HPO4, and 10 mM Na2B4O7, pH 8.2 and solvent B: methanol: acetonitrile: water (45:45:10 v/v). […] For every molecule of glutamine formed, one molecule of ATP is hydrolysed to ADP and Pi. […] For Pi assays, the assay mixtures incubated at 37° C. for 1 h were diluted with water to 200 μl, followed by the addition of 30 μl of phosphate reagent of Phosphate Assay Kit (Abcam, ab65622). After vortexing, the absorbance was measured at 650 nm as per the manufacturer's protocol. Individual glutamate-and protein-omitted reactions were used as controls for all the assays.
# [5] = substrate: N; assay: as above; assay type: biochemical, Plasmodium falciparum; conditions: other: Lineweaver-Burk plots; mean±SD, at least three different protein preparations
# Method: as §1
# [6] = substrate: N[C@@H](CCC(=O)O)C(=O)O; assay: as above; assay type: biochemical, Plasmodium falciparum; conditions: other: Lineweaver-Burk plots; mean±SD, at least three different protein preparations
# Method: as §1
# [7] = substrate: Nc1ncnc2c1ncn2[C@@H]1O[C@H](COP(=O)(O)OP(=O)(O)OP(=O)(O)O)[C@@H](O)[C@H]1O; assay: as above; assay type: biochemical, Plasmodium falciparum; conditions: other: Lineweaver-Burk plots; mean±SD, at least three different protein preparations
# Method: as §1
molecule,measurement,setting,value
"C[C@@H]1CC[C@H]2[C@@H](C)C(=O)O[C@@H]3O[C@@]4(C)CC[C@@H]1[C@]32OO4 [ART, artemisinin]",viable parasites after exposure in RSA,"[1]; 700 nM exposure for 6 h, PfCam3.I^R539T cultures, after 72 h",resulted in viable parasites
"CS(=N)(=O)CC[C@H](N)C(=O)O (stereo partly drawn) [MSO, L-methionine sulfoximine]",free glutamine levels in treated Pf parasites with respect to untreated parasites,Pf parasites,did not show a significant decrease
same,reduction of free asparagine levels with respect to untreated control,Pf parasites,1.5-2.0 fold
same,inhibition with respect to the untreated control,"[1]; MSO alone for 6 h, PfCam3.I^R539T rings",10-20%
same,inhibition at 50 µM,Pf protein synthesis,40 to 50%
same,inhibition at 250 µM,Pf protein synthesis,~80%
same,inhibition at 1000 µM,Pf protein synthesis,~50%
same,growth of Pf clinical samples,Pf clinical isolates,could inhibit the growth of Pf clinical samples to the extent that was observed for Pf3D7 strain
same,IC50,[2],~30 µM
same,phosphorylation of eIF2α in Pf,[3],prominent phosphorylation
"CP(=O)(O)CCC(N)C(=O)O (centres unmarked) [PPT, Phosphinothricin]",inhibition at 50 µM,Pf protein synthesis,40 to 50%
same,inhibition at 250 µM,Pf protein synthesis,~80%
same,inhibition at 1000 µM,Pf protein synthesis,~50%
same,growth of Pf clinical samples,Pf clinical isolates,could inhibit the growth of Pf clinical samples to the extent that was observed for Pf3D7 strain
same,Ki,[4],2.31 ± 1.1 µM
same,IC50,[2]; RPMI medium lacking glutamine (RPMI^-gln),~30 µM
same,IC50 in RPMI^Pgln relative to IC50 in RPMI^-gln,[2]; RPMI medium containing physiological levels (0.5 mM) of glutamine (RPMI^Pgln),~10 times higher
B1,Km,[5],530 ± 180 µM
same,Km,[6],730 ± 210 µM
same,Km,[7],750 ± 140 µM
